Assay [1] deals with Human recombinant GST-PI3Kγ (Homo sapiens, UniProt P48736). Nature of the assay: High throughput PI3K lipid kinase assay (SPA, neomycin-coated beads). The format is biochemical. The note with it: 180 min at room temperature. An excerpt: a) High Throughput PI3K Lipid Kinase Assay (Binding Assay):
The efficacy of compounds of the invention in inhibiting the PI3K induced-lipid phosphorylation may be tested in the following binding assay.
The assay combines the scintillation proximity assay technology (SPA, Amersham) with the capacity of neomycin (a polycationic antibiotic) to bind phospholipids with high affinity and specificity. The Scintillation Proximity Assay is based on the properties of weakly emitting isotopes (such as ^3H, ^125I, ^33P). Coating SPA beads with neomycin allows the detection of phosphorylated lipid substrates after incubation with recombinant PI3K and radioactive ATP in the same well, by capturing the radioactive phospholipids to the SPA beads through their specific binding to neomycin.
To a 384 wells MTP containing 5 μl of the test compound of Formula (I) (solubilized in 6% DMSO; to yield a concentration of 100, 30, 10, 3, 1, 0.3, 0.1, 0.03, 0.01, 01 μM of the test compound), the following assay components are added. 1) 5 μl (58 ng) of Human recombinant GST-PI3Kγ (in Hepes 40 mM, pH 7.4, DTT 1 mM and ethyleneglycol 5%) 2) 10 μl of lipid micelles and 3) 10 μl of Kinase buffer ([^33P]γ-ATP 45 μM/60 nCi, MgCl2 30 mM, DTT 1 mM, β-Glycerophosphate 1 mM, Na3VO4 100 μM, Na Cholate 0.3%, in Hepes 40 mM, pH 7.4). After incubation at room temperature for 180 minutes, with gentle agitation, the reaction is stopped by addition of 60 μl of a solution containing 100 μg of neomycin-coated PVT SPA beads in PBS containing ATP 10 mM and EDTA 5 mM. The assay is further incubated at room temperature for 60 minutes with gentle agitation to allow binding of phospholipids to neomycin-SPA beads. After precipitation of the neomycin-coated PVT SPA beads for 5 minutes at 1500×g, radioactive PtdIns(3)P is quantified by scintillation counting in a Wallac MicroBeta™ plate counter.
The values indicated in Table I below refer to the IC50 (μM) with respect to PI3Kγ, i.e. the amount necessary to achieve 50% inhibition of said target. Said values show a considerable inhibitory potency of thiazole compounds with regard to PI3Kγ.

Assay [2] deals with Akt/PKB phosphorylation in Raw 264-7 macrophages. The assay is described as follows: Cell based ELISA of Akt/PKB phosphorylation after Complement 5a stimulation. The note with it: Mus musculus, RAW264.7, 50 nM Complement 5a for 5 minutes, inhibitor pretreatment 20 minutes, read-out: Cell Assay (P-Akt, Elisa) IC50. How it is done:
b) Cell Based ELISA to Monitor PI3K Inhibition:
The efficacy of compounds of the invention in inhibiting the PI3K induced Akt/PKB phosphorylation may be tested in the following cell based assay.
Measurement of Akt/PKB phosphorylation in macrophages after stimulation with Complement 5a: Raw 264: Raw 264-7 macrophages (cultured in DMEM-F12 medium containing 10% Fetal Calf serum and antibiotics) are plated at 20'000 cells/well in a 96 MTP 24 h before cell stimulation. Prior to the stimulation with 50 nM of Complement 5a during 5 minutes, Cells are serum starved for 2 h, and pretreated with inhibitors for 20 minutes. After stimulation cells are fixed in 4% formaldehyde for 20 minutes and washed 3 times in PBS containing 1% Triton X-100 (PBS/Triton). […] Next, phosphorylated Akt/PKB is detected by an overnight incubation at 4° C. with primary antibody (anti phospho Serine 473 Akt IHC, Cell Signaling) diluted 800-fold in PBS/Triton, containing 5% bovine serum albumin (BSA). After 3 washes in PBS/Triton, cells are incubated for 60 minutes with a peroxidase conjugated goat-anti-rabbit secondary antibody (1/400 dilution in PBS/Triton, containing 5% BSA), washed 3 times in PBS/Triton, and 2 times in PBS and further incubated in 100 μl of luminescent substrate reagent solution (Pierce) for 2 minutes, followed by the reading (1 s/well). […]

The next assay relates to Class I PI3-kinases. The note with it: Fruman et al., 1998; read-out: IC50 against each of the various Class I PI3-kinases; cited from earlier work.

Chain of Human recombinant GST-PI3Kγ (P48736 whole entry): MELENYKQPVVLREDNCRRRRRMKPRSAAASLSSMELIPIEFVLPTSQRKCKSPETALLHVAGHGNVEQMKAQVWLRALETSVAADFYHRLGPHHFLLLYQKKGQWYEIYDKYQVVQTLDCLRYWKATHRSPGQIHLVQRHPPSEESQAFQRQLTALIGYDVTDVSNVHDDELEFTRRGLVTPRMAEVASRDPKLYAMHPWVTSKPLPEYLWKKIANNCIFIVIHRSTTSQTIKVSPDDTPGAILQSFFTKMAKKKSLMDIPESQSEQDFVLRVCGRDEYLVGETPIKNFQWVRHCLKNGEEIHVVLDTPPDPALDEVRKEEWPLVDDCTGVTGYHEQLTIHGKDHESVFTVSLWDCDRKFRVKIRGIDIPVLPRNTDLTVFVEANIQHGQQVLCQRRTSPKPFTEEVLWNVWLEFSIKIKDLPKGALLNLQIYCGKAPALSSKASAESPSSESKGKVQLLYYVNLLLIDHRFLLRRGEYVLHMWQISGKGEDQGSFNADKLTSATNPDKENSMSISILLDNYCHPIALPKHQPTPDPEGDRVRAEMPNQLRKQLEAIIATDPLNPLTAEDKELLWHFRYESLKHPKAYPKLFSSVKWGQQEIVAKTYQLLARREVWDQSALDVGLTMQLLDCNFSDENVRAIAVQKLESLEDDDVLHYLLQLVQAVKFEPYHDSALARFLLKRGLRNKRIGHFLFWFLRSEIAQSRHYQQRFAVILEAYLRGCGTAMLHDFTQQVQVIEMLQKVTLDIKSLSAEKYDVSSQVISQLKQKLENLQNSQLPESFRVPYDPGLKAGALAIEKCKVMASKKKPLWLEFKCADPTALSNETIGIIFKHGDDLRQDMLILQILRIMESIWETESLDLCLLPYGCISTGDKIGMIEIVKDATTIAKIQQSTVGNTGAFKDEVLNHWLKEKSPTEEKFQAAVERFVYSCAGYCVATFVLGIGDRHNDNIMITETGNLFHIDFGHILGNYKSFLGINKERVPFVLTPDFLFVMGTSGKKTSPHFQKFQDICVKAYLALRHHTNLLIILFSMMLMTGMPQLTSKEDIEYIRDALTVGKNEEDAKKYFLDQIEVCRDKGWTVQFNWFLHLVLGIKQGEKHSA

As for `CC(=O)Nc1nc(C)c(-c2cnn(C)c2)s1` [Example 1, N-[4-methyl-5-(1-methyl-1H-pyrazol-4-yl)-1,3-thiazol-2-yl]acetamide], the IC50 in assay [1] is 1340 nM.

`CC(=O)Nc1nc(C)c(-c2cn[nH]c2)s1` [Example 3, N-[4-methyl-5-(1H-pyrazol-4-yl)-1,3-thiazol-2-yl]acetamide]: the IC50 in assay [1] was 413 nM.

Consider `CC(=O)Nc1nc(C)c(-c2cnn(C(=O)NCCN(C)C)c2)s1` [Example 5, 4-[2-(acetylamino)-4-methyl-1,3-thiazol-5-yl]-N-[2-(dimethylamino)ethyl]-1H-pyrazole-1-carboxamide], for which the IC50 in assay [1] is 1230 nM.

As to `COc1ccc(S(=O)(=O)n2cc(-c3sc(NC(C)=O)nc3C)cn2)cn1` [Example 7, N-(5-{1-[(6-methoxypyridin-3-yl)sulfonyl]-1H-pyrazol-4-yl}-4-methyl-1,3-thiazol-2-yl)acetamide], in assay [1], the IC50 was found to be 282 nM.

With `CC(=O)Nc1nc(C)c(-c2cnn(S(=O)(=O)c3cn(C)cn3)c2)s1` [Example 8, N-(4-methyl-5-{1-[(1-methyl-1H-imidazol-4-yl)sulfonyl]-1H-pyrazol-4-yl}-1,3-thiazol-2-yl)acetamide], the 50% inhibitory concentration (IC50) came out at 111 nM in assay [1] and 850 nM in assay [2].

For `CC(=O)Nc1nc(C)c(-c2cnn(S(=O)(=O)c3ccc(C(=O)O)cc3)c2)s1` [Example 14, 4-({4-[2-(acetylamino)-4-methyl-1,3-thiazol-5-yl]-1H-pyrazol-1-yl}sulfonyl)benzoic acid], the IC50 in assay [1] was found to be 708 nM.

wortmannin: in the assay on Class I PI3-kinases, the IC50 is 1 to 10 nM.
